Results published in patent US20110053873A1, “HSP90 INHIBITORS” (TAKEDA PHARMACEUTICAL COMPANY LIMITED, priority 2008, published 2011).

Test system: cells
Test: not given
Details: cited from earlier work

| Structure (SMILES) | concentration range of biological effects on cells |
| --- | --- |
| C#CCCCn1c(Cc2cc(OC)c(OC)c(OC)c2Cl)nc2c(N)nc(F)nc21 [PU24FCl] | 2-6 μM |

Test system: HSP90
Test: not given
Details: transformed cells vs normal tissues; cited from earlier work

| Structure (SMILES) | higher affinity for HSP90 from transformed cells compared to that from normal tissues |
| --- | --- |
| C#CCCCn1c(Cc2cc(OC)c(OC)c(OC)c2Cl)nc2c(N)nc(F)nc21 [PU24FCl] | 10-50 times |

Molecular target: T1, HSP90α (Homo sapiens, UniProt P07900, I104V)
T1 construct: made in house; host or cells: E. coli (BL21)
Test: Enzyme binding (competition fluorescence polarization) assay with TSD-FP probe
Details: method of Example A-1; incubation time not stated; read-out: Binding Affinity IC50
Description: The reaction can be followed kinetically using fluorescence (excitation λ=485 nm; emission λ=538 nm). The binding affinity of the test compound to HSP90 is determined by the changes in the polarized fluorescence; the intensity of the polarized fluorescence is proportional to the fraction of bound probe. A novel small molecule fluorescence probe, (S,E)-5-(2-(2-amino-7-(4-fluoro-2-(6-methoxypyridin-2-yl)phenyl)-4-methyl-7,8-dihydroquinazolin-5(6H)-ylideneaminooxy)ethylcarbamoyl)-2-(6-hydroxy-3-oxo-3H-xanthene-9-yl)benzoic acid (TSD-FP probe) was specifically developed for the assay. Inhibition constants (IC50) may be calculated by non-linear curve fitting of the compound concentrations and fluorescence intensities to the standard IC50 equation.
1. Enzyme Binding (Fluorescence Polarization) Assay for HSP90 Inhibitors.
a. Preparation of HSP90c Protein
This example describes cloning, expression and purification of a protein comprising the N-terminal domain of HSP90α. It should be noted that a variety of other expression systems and hosts are also suitable for the expression of such protein, as would be readily appreciated by one of skill in the art.
The sequence of human wild-type HSP90α is well known in the art; see, Chen B. et al. Genomics 2005 86:627-637. The gene encoding HSP90α can be isolated from RNA, cDNA or cDNA libraries. In this case, the gene encoding residues 9-236 of image clone 5270926 of HSP90α (ATCC) was isolated. This portion of the gene encoding a section of human HSP90α that includes the N-terminal nucleotide binding domain of human HSP90 was cloned into pET28a vector (Novagen). The DNA sequence of the vector is shown in SEQ ID NO: 1. Expression from this vector produced a protein consisting of the recombinant N-terminal nucleotide binding domain of HSP90α with a cleavable 6×-histidine tag and a cleavage site at the N-terminus. The amino acid sequence of this recombinant protein is shown in SEQ ID NO: 2.
Recombinant human N-terminal truncated His6-HSP90α was expressed in E. coli (BL21) cells with IPTG induction. Cell paste from 24×60 mL tubes (grown in a multi-tube airlift fermentor) was lysed using an automated sample lyser. Briefly, the pellet in each tube was suspended in 21 mL of lysis buffer consisting of 50 mM Tris pH 7.9, 50 mM NaCl, 1 mM MgCl2, 0.6 g/L Lysozyme (Sigma), 100 μL/L Benzonase (Novagen). […] After incubation, 5 M NaCl was added to bring the final salt concentration to 400 mM. The tubes were sonicated for 50 seconds and then centrifuged at 3400 rpm for 50 min. The supernatants were pooled and 4 ml of ProBond Ni resin (Invitrogen) was added. After at least 30 minutes, the resin was spun down, washed with 25 mM Tris pH 7.6, 400 mM NaCl, 20 mM imidazole, poured into a column and washed with 10 column volumes of the same buffer. The protein was eluted from the column using 3 column volumes of 25 mM Tris pH 7.6, 400 mM NaCl, 400 mM imidazole. The eluate was loaded onto a Supedex 200 column (GE Healthcare) equilibrated with 25 mM Tris pH 7.6, 250 mM NaCl, 0.25 mM TCEP, 1 mM EDTA and peak fractions were pooled and concentrated to ˜6 mg/mL using 10 kDA MWCO centrifugal concentrators (Millipore). Aliquots were flash frozen in liquid nitrogen and stored at −80° C. All purification was done at 4° C.
b. Preparation of the Fluorescence Polarization Probe.
A fluorescein labeled small molecule was designed and synthesized as a probe (TSD-FP probe) for the determination of the binding affinity of the test compound to HSP90 proteins. The synthesis of the small molecule, (S,E)-2-amino-7-(4-fluoro-2-(6-methoxypyridin-2-yl)phenyl)-4-methyl-7,8-dihydroquinazolin-5(6H)-one O-2-aminoethyl oxime (Compound 24) was described in Examples 24 and 25 above. The TSD-FP probe was prepared according to the following procedure:
c. Assaying the In Vitro Enzymatic Activity of HSP90 Inhibitors.
The inhibitory effect of the compounds of the invention against HSP90α was determined by fluorescence polarization assay.

| Structure (SMILES) | IC50 [nM] |
| --- | --- |
| COc1cccc(-c2cc(F)ccc2[C@H]2Cc3nc(N)nc(C)c3C(NOC3C[C@@H](O)[C@@H](O)C3)=N2)n1 (stereo partly drawn) [Compound 58, (7R,Z)-2-amino-7-(4-fluoro-2-(6-methoxypyridin-2-yl)phenyl)-4-methyl-7,8-dihydropyrido[4,3-d]pyrimidin-5(6H)-one O-(3R,4S)-3,4-dihydroxycyclopentyl oxime] | 5 |
| COc1cccc(-c2cc(F)ccc2[C@H]2Cc3nc(N)nc(C)c3/C(=N/OCCCCO)N2)n1 [Compound 79, (R,Z)-2-amino-7-(4-fluoro-2-(6-methoxypyridin-2-yl)phenyl)-4-methyl-7,8-dihydropyrido[4,3-d]pyrimidin-5(6H)-one O-4-hydroxybutyl oxime] | 6 |
| COc1cccc(-c2cc(F)ccc2[C@H]2Cc3nc(N)nc(C)c3C(NOCC(=O)N(C)C[C@H](O)CO)=N2)n1 [Compound 96, 2-((Z)-((R)-2-amino-7-(4-fluoro-2-(6-methoxypyridin-2-yl)phenyl)-4-methyl-7,8-dihydropyrido[4,3-d]pyrimidin-5(6H)-ylidene)aminooxy)-N—((S)-2,3-dihydroxypropyl)-N-methylacetamide] | 13 |
| COc1cccc(-c2cc(F)ccc2[C@H]2Cc3nc(N)nc(C)c3/C(=N/O)N2)n1 [Compound 61, (R,Z)-2-amino-7-(4-fluoro-2-(6-methoxypyridin-2-yl)phenyl)-4-methyl-7,8-dihydropyrido[4,3-d]pyrimidin-5(6H)-one oxime] | 3 |
| COc1cccc(-c2cc(F)ccc2[C@H]2Cc3nc(N)nc(C)c3/C(=N/OCC(=O)N(C)CCO)N2)n1 [Compound 99, (R,Z)-2-(2-amino-7-(4-fluoro-2-(6-methoxypyridin-2-yl)phenyl)-4-methyl-7,8-dihydropyrido[4,3-d]pyrimidin-5(6H)-ylideneaminooxy)-N-(2-hydroxyethyl)-N-methylacetamide] | 8 |
| COc1cccc(-c2cc(F)ccc2[C@H]2Cc3nc(N)nc(C)c3C(NOCC3C[C@@H](O)[C@@H](O)C3)=N2)n1 (stereo partly drawn) [Compound 59, (7R,Z)-2-amino-7-(4-fluoro-2-(6-methoxypyridin-2-yl)phenyl)-4-methyl-7,8-dihydropyrido[4,3-d]pyrimidin-5(6H)-one O-((3R,4S)-3,4-dihydroxycyclopentyl)methyl oxime] | 8 |

Other lines, results leading:

| IC50 [nM] | Structure (SMILES) |
| --- | --- |
| 4 | COc1cccc(-c2cc(F)ccc2[C@H]2Cc3nc(N)nc(C)c3C(NOCCCO)=N2)n1 [Compound 78, (R,Z)-2-amino-7-(4-fluoro-2-(6-methoxypyridin-2-yl)phenyl)-4-methyl-7,8-dihydropyrido[4,3-d]pyrimidin-5(6H)-one O-3-hydroxypropyl oxime] |
| 13 | COc1cccc(-c2cc(F)ccc2[C@H]2Cc3nc(N)nc(C)c3C(NOCC(CO)CO)=N2)n1 [Compound 35, (R,Z)-2-Amino-7-(4-fluoro-2-(6-methoxypyridin-2-yl)phenyl)-4-methyl-7,8-dihydropyrido[4,3-d]pyrimidin-5(6H)-one O-3-hydroxy-2-(hydroxymethyl)propyl oxime] |
| 4 | COc1cccc(-c2cc(F)ccc2[C@H]2Cc3nc(N)nc(C)c3/C(=N/OCC(=O)N3CC[C@@H](F)C3)N2)n1 [Compound 85, 2-((Z)-((R)-2-amino-7-(4-fluoro-2-(6-methoxypyridin-2-yl)phenyl)-4-methyl-7,8-dihydropyrido[4,3-d]pyrimidin-5(6H)-ylidene)aminooxy)-1-((R)-3-fluoropyrrolidin-1-yl)ethanone] |
| 8 | COc1cccc(-c2cc(F)ccc2[C@H]2Cc3nc(N)nc(C)c3C(NOCC(=O)N(C)C)=N2)n1 [Compound 83, (R,Z)-2-(2-amino-7-(4-fluoro-2-(6-methoxypyridin-2-yl)phenyl)-4-methyl-7,8-dihydropyrido[4,3-d]pyrimidin-5(6H)-ylideneaminooxy)-N,N-dimethylacetamide] |
| 10 | COc1cccc(-c2cc(F)ccc2[C@H]2Cc3nc(N)nc(C)c3C(NOCC3CCC(O)CC3)=N2)n1 (stereo partly drawn) [Compound 65, (R,Z)-2-amino-7-(4-fluoro-2-(6-methoxypyridin-2-yl)phenyl)-4-methyl-7,8-dihydropyrido[4,3-d]pyrimidin-5(6H)-one O-((1s,4S)-4-hydroxycyclohexyl)methyl oxime] |
| 6 | COc1cccc(-c2cc(F)ccc2[C@H]2Cc3nc(N)nc(C)c3/C(=N/OCC[C@H](O)CO)N2)n1 [Compound 37, (R,Z)-2-amino-7-(4-fluoro-2-(6-methoxypyridin-2-yl)phenyl)-4-methyl-7,8-dihydropyrido[4,3-d]pyrimidin-5(6H)-one O—(S)-3,4-dihydroxybutyl oxime] |
| 8 | COc1cccc(-c2cc(F)ccc2[C@H]2Cc3nc(N)nc(C)c3/C(=N/O[C@@H](CCO)C(=O)N(C)C)N2)n1 [Compound 93, (S)-2-((Z)-((R)-2-amino-7-(4-fluoro-2-(6-methoxypyridin-2-yl)phenyl)-4-methyl-7,8-dihydropyrido[4,3-d]pyrimidin-5(6H)-ylidene)aminooxy)-4-hydroxy-N,N-dimethylbutanamide] |
| 4 | COc1cccc(-c2cc(F)ccc2[C@H]2Cc3nc(N)nc(C)c3/C(=N/OC[C@H](O)CO)N2)n1 [Compound 33, (R,Z)-2-Amino-7-(4-fluoro-2-(6-methoxypyridin-2-yl)phenyl)-4-methyl-7,8-dihydropyrido[4,3-d]pyrimidin-5(6H)-one O—(R)-2,3-dihydroxypropyl oxime] |
